Reference: US20040006070A1, “Intraspinal continuous infusion of midazolam hydrochloride for the treatment of pain” (priority 2002, published 2004)
Counter-ions that a name gives are not always drawn.

Test: Bloodwork: complete blood count, electrolytes, extended blood chemistry
Format: in vivo, sheep
Method: Indirect blood pressure, pulse recording, pain testing (mechanical stimulus device, cold and warm water baths see description in procedure) and weight were taken on days 1, 3, 7, 15, 22, 29, 36, and 43. Venous blood samples (15 ml drawn from the jugular vein with Vacutainer brand blood collection tubes) for complete blood count, electrolytes, and extended blood chemistry were drawn on days 1, 15, and 43 (mild procedure only light hand restraint necessary).

[1] = sheep #84 Roadrunner, 15 mg/day, Day 1
[2] = sheep #84 Roadrunner, 15 mg/day, Day 15
[3] = sheep #84 Roadrunner, 15 mg/day, Day 43

## Cc1ncc2n1-c1ccc(Cl)cc1C(c1ccccc1F)=NC2 [Midazolam, midazolam hydrochloride]
[1]
  Total Bili: 0.3 mg/dL
  Total Prot: 5.9 g/dL
  WBC: 5390 µL⁻¹
[2]
  ALT: 2 U/L
  AST: 60 U/L
  Albumin: 3.7 g/dL
  Alk Phos: 98 U/L
  BUN: 11 mg/dL
  CPK: 53 U/L
  Cholesterol: 56 mg/dL
  Creatinine: 1.3 mg/dL
  Differential Count: Eosin: 12%
  Differential Count: Lymph: 44%
  Differential Count: Seg: 44%
  Gamma GT: 62 U/L
  Glucose: 66 mg/dL
  Hct: 31.8%
  Hgb: 10.8 g/dL
  K+: 4.8 mEq/l
  MCH: 10.8 pg
  MCHC: 34.0 g/dL
  MCV: 31.8 fL
  Na+: 150 mEq/l
  Phos: 6.6 mg/dL
  Platlet Count: 848000 µL⁻¹
  RBC: 1e+07 µL⁻¹
  Total Bili: 0.1 mg/dL
  Total Prot: 6.4 g/dL
  WBC: 5130 µL⁻¹
[3]
  ALT: 7 U/L
  AST: 65 U/L
  Albumin: 3.54 g/dL
  Alk Phos: 143 U/L
  BUN: 11 mg/dL
  CPK: 102 U/L
  Cholesterol: 57 mg/dL
  Creatinine: 1.2 mg/dL
  Differential Count: Atyp lym: 1%
  Differential Count: Eosin: 2%
  Differential Count: Lymph: 67%
  Differential Count: Mono: 1%
  Differential Count: Seg: 29%
  Gamma GT: 56 U/L
  Glucose: 74 mg/dL
  Hct: 35.0%
  Hgb: 11.9 g/dL
  K+: 4.6 mEq/l
  MCH: 11.8 pg
  MCHC: 34.0 g/dL
  MCV: 34.7 fL
  Na+: 149 mEq/l
  Phos: 7.1 mg/dL
  Platlet Count: 727000 µL⁻¹
  RBC: 1.01e+07 µL⁻¹
  Total Bili: 0.1 mg/dL
  Total Prot: 6.0 g/dL
  WBC: 5150 µL⁻¹
Sheep #85, 15 mg/day, Day 1
  ALT: 7 U/L
  AST: 76 U/L
  Alk Phos: 50 U/L
  BUN: 10 mg/dL
  CPK: 99 U/L
  Cholesterol: 52 mg/dL
  Differential Count: Baso: 1%
  Differential Count: Eosin: 1%
  Differential Count: Lymph: 22%
  Differential Count: Mono: 1%
  Differential Count: Seg: 75%
  Gamma GT: 68 U/L
  Glucose: 75 mg/dL
  Hct: 28.0%
  Hgb: 9.2 g/dL
  MCH: 10.7 pg
  MCHC: 32.8 g/dL
  MCV: 32.7 fL
  Na+: 149 mEq/l
  Platlet Count: 994000 µL⁻¹
  RBC: 8.57e+06 µL⁻¹
  WBC: 4780 µL⁻¹
Sheep #85, 15 mg/day, Day 1, ref 0.14-0.32
  Total Bili: 0.1 mg/dL
Sheep #85, 15 mg/day, Day 1, ref 1-2.7
  Creatinine: 1.4 mg/dL
Sheep #85, 15 mg/day, Day 1, ref 2.4-3
  Albumin: 3.4 g/dL
Sheep #85, 15 mg/day, Day 1, ref 3.9-5.4
  K+: 4.7 mEq/l
Sheep #85, 15 mg/day, Day 1, ref 5-7.3
  Phos: 5.3 mg/dL
Sheep #85, 15 mg/day, Day 1, ref 6-7.9
  Total Prot: 6.1 g/dL
Sheep #85, 15 mg/day, Day 15
  ALT: 10 U/L
  AST: 56 U/L
  Alk Phos: 54 U/L
  BUN: 17 mg/dL
  CPK: 56 U/L
  Cholesterol: 58 mg/dL
  Differential Count: Eosin: 12%
  Differential Count: Lymph: 44%
  Differential Count: Seg: 44%
  Gamma GT: 54 U/L
  Hct: 31.8%
  Hgb: 10.8 g/dL
  MCH: 10.8 pg
  MCHC: 34.0 g/dL
  MCV: 31.8 fL
  Na+: 148 mEq/l
  Platlet Count: 848000 µL⁻¹
  RBC: 1e+07 µL⁻¹
  WBC: 5130 µL⁻¹
Sheep #85, 15 mg/day, Day 15, ref 0.14-0.32
  Total Bili: 0.0 mg/dL
Sheep #85, 15 mg/day, Day 15, ref 1-2.7
  Creatinine: 1.2 mg/dL
Sheep #85, 15 mg/day, Day 15, ref 2.4-3
  Albumin: 2.8 g/dL
Sheep #85, 15 mg/day, Day 15, ref 3.9-5.4
  K+: 5.0 mEq/l
Sheep #85, 15 mg/day, Day 15, ref 5-7.3
  Phos: 6.0 mg/dL
Sheep #85, 15 mg/day, Day 15, ref 6-7.9
  Total Prot: 5.4 g/dL
Sheep #85, 15 mg/day, Day 43
  ALT: 8 U/L
  AST: 59 U/L
  Alk Phos: 92 U/L
  BUN: 13 mg/dL
  CPK: 81 U/L
  Cholesterol: 72 mg/dL
  Differential Count: Eosin: 4%
  Differential Count: Lymph: 75%
  Differential Count: Mono: 3%
  Differential Count: Seg: 18%
  Gamma GT: 60 U/L
  Glucose: 76 mg/dL
  Hct: 34.7%
  Hgb: 11.9 g/dL
  MCH: 12.6 pg
  MCHC: 34.1 g/dL
  MCV: 36.8 fL
  Na+: 148 mEq/l
  Platlet Count: 604000 µL⁻¹
  RBC: 9.44e+06 µL⁻¹
  WBC: 3130 µL⁻¹
Sheep #85, 15 mg/day, Day 43, ref 0.14-0.32
  Total Bili: 0.1 mg/dL
Sheep #85, 15 mg/day, Day 43, ref 1-2.7
  Creatinine: 1.3 mg/dL
Sheep #85, 15 mg/day, Day 43, ref 2.4-3
  Albumin: 3.6 g/dL
Sheep #85, 15 mg/day, Day 43, ref 3.9-5.4
  K+: 4.9 mEq/l
Sheep #85, 15 mg/day, Day 43, ref 5-7.3
  Phos: 7.1 mg/dL
Sheep #85, 15 mg/day, Day 43, ref 6-7.9
  Total Prot: 6.4 g/dL
Sheep #91, 15 mg/day, Day 1
  ALT: 7 U/L
  AST: 61 U/L
  Alk Phos: 132 U/L
  BUN: 9 mg/dL
  CPK: 52 U/L
  Cholesterol: 47 mg/dL
  Differential Count: Eosin: 1%
  Differential Count: Lymph: 21%
  Differential Count: Mono: 2%
  Differential Count: Seg: 76%
  Gamma GT: 51 U/L
